We go through 2 compounds from patent US20180008587A1, “THIOHYDANTOIN ANDROGEN RECEPTOR ANTAGONISTS FOR THE TREATMENT OF CANCER” (Jaressen Pharmaceutica NV, priority 2016, published 2018).

Numbering of substitutions follows the chain as printed.

One test concerns the target T1, AR T877A (Homo sapiens, UniProt P10275, T878A).
T1 construct: expressed in transfected cells; host or cells: HepG2
T1 sequence (P10275 1-920 T878A): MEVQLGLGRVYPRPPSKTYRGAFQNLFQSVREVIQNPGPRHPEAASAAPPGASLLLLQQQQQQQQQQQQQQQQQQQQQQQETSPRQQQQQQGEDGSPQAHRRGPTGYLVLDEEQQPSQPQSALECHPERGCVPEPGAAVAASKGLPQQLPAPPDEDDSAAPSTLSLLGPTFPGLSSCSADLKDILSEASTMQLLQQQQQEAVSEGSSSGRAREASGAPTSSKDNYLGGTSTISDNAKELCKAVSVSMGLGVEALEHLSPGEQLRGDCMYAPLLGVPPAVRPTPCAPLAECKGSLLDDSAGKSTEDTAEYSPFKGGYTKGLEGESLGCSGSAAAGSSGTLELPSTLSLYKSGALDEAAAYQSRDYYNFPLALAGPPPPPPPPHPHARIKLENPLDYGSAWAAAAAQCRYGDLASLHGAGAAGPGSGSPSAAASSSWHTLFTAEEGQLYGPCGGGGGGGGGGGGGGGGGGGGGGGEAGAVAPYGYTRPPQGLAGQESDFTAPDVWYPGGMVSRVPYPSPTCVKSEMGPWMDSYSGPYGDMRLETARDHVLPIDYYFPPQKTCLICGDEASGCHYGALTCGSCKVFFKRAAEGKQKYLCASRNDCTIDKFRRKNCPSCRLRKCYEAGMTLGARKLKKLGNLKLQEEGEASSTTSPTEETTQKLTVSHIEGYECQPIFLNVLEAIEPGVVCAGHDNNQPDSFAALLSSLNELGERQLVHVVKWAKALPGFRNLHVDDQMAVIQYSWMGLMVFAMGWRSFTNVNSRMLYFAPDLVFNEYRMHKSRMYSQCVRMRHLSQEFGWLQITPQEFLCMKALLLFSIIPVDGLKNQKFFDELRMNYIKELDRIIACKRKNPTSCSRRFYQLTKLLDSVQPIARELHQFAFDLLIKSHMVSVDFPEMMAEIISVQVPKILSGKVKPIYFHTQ
As to the kind of experiment: Luciferase transcriptional reporter assay, mutant AR, HepG2, antagonist mode. The test is classed as cell-based. To be noted: HepG2, 90 pM R1881, 48 hours; * denotes incomplete inhibition (otherwise 100%); read-out: Antagonism; IC50, AR construct T877A. Here is the method:
(§1) HepG2 cells were maintained in EMEM supplemented with 10% FBS. One day before transfection, the media was changed to EMEM with 10% CSS. T-150 flasks were transiently transfected using 120 μL Lipofectamine 2000 (Life Technologies), 30 μg mutant cDNA (expression vector)—mutant cDNA tested were L701H, T877A, W741C and H874Y—and 40 μg 4×ARE-Luciferase (reporter vector) in OptiMEM and the flasks were incubated overnight. Cells were then trypsinized, counted and resuspended at 500,000 cells/mL. For agonist mode, the compounds of Formula (I) are serially diluted and 50 μL of the compound added per well. 50 μL of the cells are added to each well and incubated for 48 hours. For antagonist mode, a final concentration of 90 pM R1881 was added to the diluted compounds and incubated for 48 hours. The plates were then assayed using SteadyGlo and read on the Envision. Percent Stimulation and Inhibition is determined and analyzed using GraphPad Prism.
(§2) All values are calculated relative to the activity of R1881 induced androgen receptor activity (n≧3).

The next test has as its target T2, AR W741C (Homo sapiens, UniProt P10275, W742C).
T2 construct: expressed in transfected cells; host or cells: HepG2
T2 sequence (P10275 1-920 W742C): T1 sequence (P10275 1-920 T878A) with W742C, A878T
The test is described as above. The class given is cell-based. As to conditions: HepG2, 90 pM R1881, 48 hours; * denotes incomplete inhibition (otherwise 100%); read-out: Antagonism; IC50, AR construct W741C. The protocol:
as §1, §2

Turning to `N#Cc1ncc(N2C(=O)C3(CCC3)N(c3ccc(C(=O)NCCCO)c(F)c3)C2=S)cc1C(F)(F)F` [Cpd 40, 4-[6-[6-cyano-5-(trifluoromethyl)-3-pyridyl]-5-oxo-7-thioxo-6,8-diazaspiro[3.4]octan-8-yl]-2-fluoro-N-(3-hydroxypropyl)benzamide], at AR T877A, the IC50 stood at 7.51 µM.
On to `N#Cc1ncc(N2C(=O)C3(CCC3)N(c3ccc(OC4CCNCC4)cc3)C2=S)cc1C(F)(F)F` [Cpd 35, 5-[5-oxo-8-[4-(4-piperidyloxy)phenyl]-7-thioxo-6,8-diazaspiro[3.4]octan-6-yl]-3-(trifluoromethyl)pyridine-2-carbonitrile], for which the IC50 turned out to be 5.79 µM at AR W741C and 3.59 µM on AR T877A.
